Patent publication US20230082555A1, “Composition for Medium” (Kataoka Corporation, priority 2019, published 2023)

Test system: human fibroblasts
Assay: Presence or absence of fatty acids in serum-free induction medium, Ucp1 and Ckmt1 by QRT-PCR (Test Example E)
Assay type: cell-based
Conditions: brown adipocytes induced from fibroblasts; FIGS. 8 and 9
Procedure: After the human fibroblasts reached 80% to 90% confluency, the medium in the dish was replaced with SFBAM which is serum-free or SFBAM in which albumin and fatty acid components were changed to the combinations shown in Table 10 of the compounds shown in Table 9, both of which contain all the compounds shown in Table 3, and the human fibroblasts were cultured in said respective media for three weeks (Examples 11 to 14). The medium was changed every three days. Thereafter, the expression amounts of marker genes, Ucp1 and Ckmt1, specific for brown adipose tissue were quantified by QRT-PCR. Symbol 1 (control) in the figures represents the result in SFBAM without the compounds shown in Table 3 necessary for induction into brown adipocytes.

Substance: fatty acid-unbound albumin: Fatty acid-free albumin, in which a fatty acid is removed from an albumin (017-15146, FUJIFILM Wako)
- Expression levels of Ucp1 genes versus induction with fatty acid-bound albumin: much higher
